Tests used:
Assay in all cases: Kinase inhibitory activity profiling of RI-962@10 µM (406 kinases, Eurofins)
Assay type in all cases: biochemical
[1] = molecular target: panel of human kinases (kinase named in endpoint) (Homo sapiens, UniProt P42338); conditions: 10 µM; read-out: Activity (%), PI3 Kinase (p110b/p85a)(h)
Method: (§1) In vitro kinase activity assays were conducted through the Kinase Profiling Services provided by Eurofins (Eurofins, France). The protocol for the RIPK1 assay is briefly described as follows (Protocols for other kinases are very similar and can be found in http://www.eurofins.com/pharmadiscovery). RIPK1 kinase was incubated with the test compound in assay buffer containing 8 mM MOPS (pH 7.0), 0.2 mM EDTA, 250 μM […], 10 mM magnesium acetate, and 10 μM [γ-33P]-ATP for 15 min at room temperature. The reaction was initiated by the addition of the Mg/ATP mixture. After incubation for 40 min at room temperature, and the reaction was stopped by the addition of 3% phosphoric acid. A 10 μL portion of the reaction mixture was then spotted onto a P30 filter mat and washed four times for 4 min in 0.425% phosphoric acid and once in methanol prior to drying and scintillation counting.

[2] = molecular target: panel of human kinases (kinase named in endpoint) (Homo sapiens, UniProt O96017, R145W); conditions: 10 µM; read-out: Activity (%), CHK2(R145W)(h)
Method: as §1

[3] = molecular target: panel of human kinases (kinase named in endpoint) (Homo sapiens, UniProt P35968); conditions: 10 µM; read-out: Activity (%), KDR(h)
Method: as §1

[4] = molecular target: panel of human kinases (kinase named in endpoint) (Homo sapiens, UniProt O15146); conditions: 10 µM; read-out: Activity (%), MuSK(h)
Method: as §1

[5] = molecular target: panel of human kinases (kinase named in endpoint) (Homo sapiens, UniProt O14965); conditions: 10 µM; read-out: Activity (%), Aurora-A(h)
Method: as §1

[6] = molecular target: panel of human kinases (kinase named in endpoint) (Homo sapiens, UniProt P37173); conditions: 10 µM; read-out: Activity (%), TGFBR2(h)
Method: as §1

[7] = molecular target: panel of human kinases (kinase named in endpoint) (Homo sapiens, UniProt Q9HAZ1); conditions: 10 µM; read-out: Activity (%), CLK4(h)
Method: as §1

[8] = molecular target: panel of human kinases (kinase named in endpoint) (Homo sapiens, UniProt Q05397); conditions: 10 µM; read-out: Activity (%), FAK(h)
Sequence of panel of human kinases (kinase named in endpoint) (Homo sapiens, UniProt Q05397) (Q05397 whole entry): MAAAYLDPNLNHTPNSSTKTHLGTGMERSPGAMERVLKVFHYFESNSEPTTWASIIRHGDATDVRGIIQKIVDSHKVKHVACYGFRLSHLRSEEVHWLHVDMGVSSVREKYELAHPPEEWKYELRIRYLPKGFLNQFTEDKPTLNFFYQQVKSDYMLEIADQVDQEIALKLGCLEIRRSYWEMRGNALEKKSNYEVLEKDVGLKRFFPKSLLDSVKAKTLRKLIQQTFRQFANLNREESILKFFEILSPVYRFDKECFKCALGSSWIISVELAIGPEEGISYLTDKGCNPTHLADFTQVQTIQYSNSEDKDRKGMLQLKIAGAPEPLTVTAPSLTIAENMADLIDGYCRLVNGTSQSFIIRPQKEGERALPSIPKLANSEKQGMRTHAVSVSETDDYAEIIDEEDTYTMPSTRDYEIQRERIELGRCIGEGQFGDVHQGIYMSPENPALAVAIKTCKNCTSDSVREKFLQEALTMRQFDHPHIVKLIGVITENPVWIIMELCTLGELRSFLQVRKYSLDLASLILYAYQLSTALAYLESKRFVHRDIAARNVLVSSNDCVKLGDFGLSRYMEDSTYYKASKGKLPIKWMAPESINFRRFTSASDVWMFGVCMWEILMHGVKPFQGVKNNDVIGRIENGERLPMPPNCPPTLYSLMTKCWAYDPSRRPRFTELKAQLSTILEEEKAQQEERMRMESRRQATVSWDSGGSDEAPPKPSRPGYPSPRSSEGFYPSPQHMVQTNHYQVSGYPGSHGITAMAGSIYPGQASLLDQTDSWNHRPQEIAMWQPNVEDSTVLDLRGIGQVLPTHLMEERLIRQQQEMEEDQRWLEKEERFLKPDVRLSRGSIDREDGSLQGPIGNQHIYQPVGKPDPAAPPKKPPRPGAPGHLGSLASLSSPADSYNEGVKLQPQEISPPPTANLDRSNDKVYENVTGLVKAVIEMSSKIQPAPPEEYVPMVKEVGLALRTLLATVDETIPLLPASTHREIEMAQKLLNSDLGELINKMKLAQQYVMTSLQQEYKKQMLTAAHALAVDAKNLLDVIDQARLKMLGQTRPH
Method: as §1

[9] = molecular target: panel of human kinases (kinase named in endpoint) (Homo sapiens, UniProt Q15835); conditions: 10 µM; read-out: Activity (%), GRK1(h)
Method: as §1

[10] = molecular target: panel of human kinases (kinase named in endpoint) (Homo sapiens, UniProt Q02763); conditions: 10 µM; read-out: Activity (%), Tie2 (h)
Method: as §1

[11] = molecular target: panel of human kinases (kinase named in endpoint) (Homo sapiens, UniProt O15111); conditions: 10 µM; read-out: Activity (%), IKKα(h)
Method: as §1

[12] = molecular target: panel of human kinases (kinase named in endpoint) (Homo sapiens, UniProt Q9H4B4); conditions: 10 µM; read-out: Activity (%), Plk3(h)
Method: as §1

[13] = molecular target: panel of human kinases (kinase named in endpoint) (Homo sapiens, UniProt P10721, V654A); conditions: 10 µM; read-out: Activity (%), cKit(V654A)(h)
Sequence of panel of human kinases (kinase named in endpoint) (Homo sapiens, UniProt P10721, V654A) (P10721 26-976 V654A): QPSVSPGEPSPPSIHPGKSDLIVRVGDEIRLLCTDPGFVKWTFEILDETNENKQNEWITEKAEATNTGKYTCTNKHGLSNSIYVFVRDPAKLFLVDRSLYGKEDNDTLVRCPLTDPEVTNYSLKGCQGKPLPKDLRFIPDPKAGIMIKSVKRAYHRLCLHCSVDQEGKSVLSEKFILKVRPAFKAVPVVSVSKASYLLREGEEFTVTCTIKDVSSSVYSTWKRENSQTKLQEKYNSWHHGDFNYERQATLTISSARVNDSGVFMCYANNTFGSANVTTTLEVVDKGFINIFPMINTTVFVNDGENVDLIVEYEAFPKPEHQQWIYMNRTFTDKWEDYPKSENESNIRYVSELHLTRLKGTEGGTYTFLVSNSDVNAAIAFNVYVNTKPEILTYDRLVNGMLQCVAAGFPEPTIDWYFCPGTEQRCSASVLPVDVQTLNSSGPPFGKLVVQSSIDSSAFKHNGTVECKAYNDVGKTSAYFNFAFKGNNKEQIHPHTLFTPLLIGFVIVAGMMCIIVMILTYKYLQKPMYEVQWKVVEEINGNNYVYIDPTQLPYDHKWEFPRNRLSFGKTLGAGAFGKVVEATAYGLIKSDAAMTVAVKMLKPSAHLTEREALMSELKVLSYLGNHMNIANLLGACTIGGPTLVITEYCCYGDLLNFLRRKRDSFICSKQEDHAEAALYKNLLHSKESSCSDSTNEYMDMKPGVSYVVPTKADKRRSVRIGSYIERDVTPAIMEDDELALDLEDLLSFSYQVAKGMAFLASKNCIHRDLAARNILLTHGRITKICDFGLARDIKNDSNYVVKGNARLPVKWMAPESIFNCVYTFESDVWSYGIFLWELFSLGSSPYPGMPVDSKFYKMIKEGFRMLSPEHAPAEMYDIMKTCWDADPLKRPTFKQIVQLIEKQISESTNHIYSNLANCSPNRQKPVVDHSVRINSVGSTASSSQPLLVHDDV
Method: as §1

[14] = molecular target: panel of human kinases (kinase named in endpoint) (Homo sapiens, UniProt Q9Y6E0); conditions: 10 µM; read-out: Activity (%), MST3(h)
Method: as §1

[15] = molecular target: panel of human kinases (kinase named in endpoint) (Homo sapiens, UniProt P22455); conditions: 10 µM; read-out: Activity (%), FGFR4(h)
Sequence of panel of human kinases (kinase named in endpoint) (Homo sapiens, UniProt P22455) (P22455 22-802): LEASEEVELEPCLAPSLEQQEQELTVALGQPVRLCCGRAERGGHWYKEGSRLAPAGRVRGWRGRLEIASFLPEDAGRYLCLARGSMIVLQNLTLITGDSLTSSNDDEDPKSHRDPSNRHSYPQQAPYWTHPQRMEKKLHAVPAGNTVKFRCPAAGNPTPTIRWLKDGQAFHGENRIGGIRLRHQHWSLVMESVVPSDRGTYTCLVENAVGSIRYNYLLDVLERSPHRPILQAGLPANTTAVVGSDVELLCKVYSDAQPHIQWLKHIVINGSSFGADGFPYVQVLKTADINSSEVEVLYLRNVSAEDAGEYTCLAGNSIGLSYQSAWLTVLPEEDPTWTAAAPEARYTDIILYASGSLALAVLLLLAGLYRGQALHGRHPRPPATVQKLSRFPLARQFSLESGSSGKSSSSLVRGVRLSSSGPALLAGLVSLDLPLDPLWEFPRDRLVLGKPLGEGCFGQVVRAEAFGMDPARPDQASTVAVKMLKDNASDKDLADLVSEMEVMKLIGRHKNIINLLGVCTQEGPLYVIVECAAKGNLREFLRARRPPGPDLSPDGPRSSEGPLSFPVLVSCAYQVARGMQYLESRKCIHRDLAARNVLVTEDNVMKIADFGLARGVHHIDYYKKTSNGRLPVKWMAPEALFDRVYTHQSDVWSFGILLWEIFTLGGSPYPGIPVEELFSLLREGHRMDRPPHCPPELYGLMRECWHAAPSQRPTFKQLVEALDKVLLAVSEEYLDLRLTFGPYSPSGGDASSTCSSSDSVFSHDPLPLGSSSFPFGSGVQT
Method: as §1

[16] = molecular target: panel of human kinases (kinase named in endpoint) (Homo sapiens, UniProt P28482); conditions: 10 µM; read-out: Activity (%), MAPK2(h)
Sequence of panel of human kinases (kinase named in endpoint) (Homo sapiens, UniProt P28482) (P28482 whole entry): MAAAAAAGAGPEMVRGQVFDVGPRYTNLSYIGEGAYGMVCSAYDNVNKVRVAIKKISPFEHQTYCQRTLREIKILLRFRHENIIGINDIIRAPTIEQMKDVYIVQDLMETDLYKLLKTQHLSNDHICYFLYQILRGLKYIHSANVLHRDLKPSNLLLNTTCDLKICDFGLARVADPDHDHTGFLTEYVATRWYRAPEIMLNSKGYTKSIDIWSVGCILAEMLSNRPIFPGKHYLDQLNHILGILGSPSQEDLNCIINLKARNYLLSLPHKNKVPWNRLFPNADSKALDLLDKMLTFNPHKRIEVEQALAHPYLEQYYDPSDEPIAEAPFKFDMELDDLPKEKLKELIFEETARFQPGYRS
Method: as §1

[17] = molecular target: panel of human kinases (kinase named in endpoint) (Homo sapiens, UniProt P54760); conditions: 10 µM; read-out: Activity (%), EphB4(h)
Sequence of panel of human kinases (kinase named in endpoint) (Homo sapiens, UniProt P54760) (P54760 16-987): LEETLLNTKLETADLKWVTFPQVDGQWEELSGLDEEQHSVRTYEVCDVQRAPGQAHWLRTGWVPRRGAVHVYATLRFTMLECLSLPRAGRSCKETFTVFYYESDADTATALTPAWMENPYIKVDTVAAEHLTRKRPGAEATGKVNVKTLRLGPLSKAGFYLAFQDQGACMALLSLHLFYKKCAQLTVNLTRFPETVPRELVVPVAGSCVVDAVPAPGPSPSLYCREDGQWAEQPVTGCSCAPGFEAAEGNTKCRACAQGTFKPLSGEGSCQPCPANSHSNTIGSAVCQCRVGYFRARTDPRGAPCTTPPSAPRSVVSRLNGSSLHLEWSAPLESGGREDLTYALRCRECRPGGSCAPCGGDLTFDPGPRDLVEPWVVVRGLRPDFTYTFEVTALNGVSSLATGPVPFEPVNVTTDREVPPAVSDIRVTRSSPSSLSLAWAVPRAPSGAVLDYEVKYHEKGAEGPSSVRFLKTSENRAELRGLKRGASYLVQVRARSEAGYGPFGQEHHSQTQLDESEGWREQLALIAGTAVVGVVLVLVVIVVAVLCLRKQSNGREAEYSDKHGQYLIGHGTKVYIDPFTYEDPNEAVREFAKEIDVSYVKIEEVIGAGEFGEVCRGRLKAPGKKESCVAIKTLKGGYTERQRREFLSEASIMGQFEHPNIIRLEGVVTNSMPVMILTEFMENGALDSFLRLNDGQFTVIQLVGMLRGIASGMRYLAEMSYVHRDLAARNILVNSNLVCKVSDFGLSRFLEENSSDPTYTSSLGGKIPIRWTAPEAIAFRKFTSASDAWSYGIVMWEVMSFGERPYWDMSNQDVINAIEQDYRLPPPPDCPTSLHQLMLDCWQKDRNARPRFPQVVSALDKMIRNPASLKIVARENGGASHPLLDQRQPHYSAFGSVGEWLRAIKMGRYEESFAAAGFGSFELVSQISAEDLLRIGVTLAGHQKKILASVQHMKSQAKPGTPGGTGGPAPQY
Method: as §1

[18] = molecular target: panel of human kinases (kinase named in endpoint) (Homo sapiens, UniProt P11309); conditions: 10 µM; read-out: Activity (%), Pim-1(h)
Method: as §1

[19] = molecular target: panel of human kinases (kinase named in endpoint) (Homo sapiens, UniProt P10721, D816V); conditions: 10 µM; read-out: Activity (%), cKit(D816V)(h)
Sequence of panel of human kinases (kinase named in endpoint) (Homo sapiens, UniProt P10721, D816V) (P10721 26-976 D816V): as the sequence (P10721 26-976 V654A) above, with A629V, D791V counted along it
Method: as §1

[20] = molecular target: panel of human kinases (kinase named in endpoint) (Homo sapiens, UniProt Q12851); conditions: 10 µM; read-out: Activity (%), GCK(h)
Sequence of panel of human kinases (kinase named in endpoint) (Homo sapiens, UniProt Q12851) (Q12851 whole entry): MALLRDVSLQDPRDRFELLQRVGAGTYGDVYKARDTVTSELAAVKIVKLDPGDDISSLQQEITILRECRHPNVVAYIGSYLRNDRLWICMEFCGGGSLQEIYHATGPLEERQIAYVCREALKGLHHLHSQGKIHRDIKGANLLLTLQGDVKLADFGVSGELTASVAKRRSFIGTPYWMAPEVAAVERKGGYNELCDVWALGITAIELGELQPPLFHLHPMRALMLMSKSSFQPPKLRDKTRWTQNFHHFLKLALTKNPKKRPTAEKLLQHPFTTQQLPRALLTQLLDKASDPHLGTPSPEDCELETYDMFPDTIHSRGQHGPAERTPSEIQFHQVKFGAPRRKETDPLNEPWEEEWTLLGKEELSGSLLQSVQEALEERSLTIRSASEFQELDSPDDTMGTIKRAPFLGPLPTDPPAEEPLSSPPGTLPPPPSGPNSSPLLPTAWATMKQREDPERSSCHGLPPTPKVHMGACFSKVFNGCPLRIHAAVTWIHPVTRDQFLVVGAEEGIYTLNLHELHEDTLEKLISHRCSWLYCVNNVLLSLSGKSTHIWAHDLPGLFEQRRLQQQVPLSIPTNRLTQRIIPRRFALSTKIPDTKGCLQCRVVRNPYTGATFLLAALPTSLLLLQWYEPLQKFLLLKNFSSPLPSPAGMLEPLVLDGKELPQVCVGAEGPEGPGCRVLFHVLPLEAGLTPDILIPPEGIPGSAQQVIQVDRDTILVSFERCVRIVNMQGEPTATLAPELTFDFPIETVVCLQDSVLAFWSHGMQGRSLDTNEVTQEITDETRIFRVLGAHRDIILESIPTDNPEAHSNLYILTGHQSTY
Method: as §1

[21] = molecular target: panel of human kinases (kinase named in endpoint) (Homo sapiens, UniProt P29376); conditions: 10 µM; read-out: Activity (%), LTK(h)
Method: as §1

[22] = molecular target: panel of human kinases (kinase named in endpoint) (Homo sapiens, UniProt Q9P2K8); conditions: 10 µM; read-out: Activity (%), GCN2(h)
Method: as §1

[23] = molecular target: panel of human kinases (kinase named in endpoint) (Homo sapiens, UniProt Q15375); conditions: 10 µM; read-out: Activity (%), EphA7(h)
Method: as §1

[24] = molecular target: panel of human kinases (kinase named in endpoint) (Homo sapiens, UniProt Q9H4A3); conditions: 10 µM; read-out: Activity (%), WNK1(h)
Method: as §1

[25] = molecular target: panel of human kinases (kinase named in endpoint) (Homo sapiens, UniProt Q9UEE5); conditions: 10 µM; read-out: Activity (%), DRAK1(h)
Method: as §1

## CC(C)C(=O)Nc1nc2cc(-c3ccc4c(c3)c(C(=O)NC(C)c3ccccc3)cn4C)ccn2n1 (stereo not shown) [RI-962]
[1]
  activity at 10 µM: 88%
[2]
  activity at 10 µM: 99%
[3]
  activity at 10 µM: 92%
[4]
  activity at 10 µM: 52%
[5]
  activity at 10 µM: 95%
[6]
  activity at 10 µM: 94%
[7]
  activity at 10 µM: 103%
[8]
  activity at 10 µM: 108%
[9]
  activity at 10 µM: 111%
[10]
  activity at 10 µM: 90%
[11]
  activity at 10 µM: 101%
[12]
  activity at 10 µM: 88%
[13]
  activity at 10 µM: 85%
[14]
  activity at 10 µM: 149%
[15]
  activity at 10 µM: 85%
[16]
  activity at 10 µM: 90%
[17]
  activity at 10 µM: 90%
[18]
  activity at 10 µM: 101%
[19]
  activity at 10 µM: 97%
[20]
  activity at 10 µM: 83%
[21]
  activity at 10 µM: 100%
[22]
  activity at 10 µM: 76%
[23]
  activity at 10 µM: 100%
[24]
  activity at 10 µM: 75%
[25]
  activity at 10 µM: 100%
